Consider 17 compounds from ChEMBL document CHEMBL1124880 (J Med Chem, 1990).

Experiment [1] deals with Adenosine receptor A1 (Rattus norvegicus) (UniProt P25099). The experiment can be described thus: Binding affinity for Adenosine A1 receptor in cerebral cortices of Sprague-Dawley male rats using [3H]CHA.
The species named for experiment [2] is Rattus norvegicus. Nature of the experiment: Minimal effective dose in an rat anti-immobility effect using behavioral despair test. The following applies: read-out: MED. The format is functional.
Experiment [3] concerns the target T1, Adenosine A2 receptor (Rattus norvegicus, UniProt P29276+P30543).
A further experiment concerns the target Phosphodiesterase 1 (Rattus norvegicus, UniProt Q63421+Q9EPR9+Q01066). Nature of the experiment: Evaluated for Ca++ dependent phosphodiesterase activity. The format is functional.
In experiment [4] the target is T2, Adenosine receptor A1 (Rattus norvegicus, UniProt P25099).
T2 sequence (P25099 whole entry): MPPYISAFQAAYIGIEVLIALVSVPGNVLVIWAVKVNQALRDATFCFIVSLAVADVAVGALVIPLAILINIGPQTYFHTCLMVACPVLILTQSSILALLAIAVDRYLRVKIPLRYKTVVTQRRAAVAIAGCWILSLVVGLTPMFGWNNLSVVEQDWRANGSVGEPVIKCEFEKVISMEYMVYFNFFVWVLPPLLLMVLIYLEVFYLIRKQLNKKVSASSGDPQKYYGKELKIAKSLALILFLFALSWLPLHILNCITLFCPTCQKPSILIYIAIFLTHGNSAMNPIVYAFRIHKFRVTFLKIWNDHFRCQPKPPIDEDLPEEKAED
Nature of the experiment: Binding affinity towards the adenosine A1 receptor in cerebral cortices of Sprague-Dawley male rats using [3H]CHA as radioligand.

For experiment [5], the species on record is Rattus norvegicus. Nature of the experiment: Evaluated for Ca++ independent phosphodiesterase activity. Format: functional.
Experiment [6] deals with T2, Adenosine receptor A1.
Experiment [7] deals with T1, Adenosine A2 receptor. Nature of the experiment: Binding affinity for Adenosine A2 receptor in corpora striata of rats using [3H]NECA. Format: protein assay.
Experiment [8] concerns the target T2, Adenosine receptor A1. The experiment can be described thus: Evaluated for the binding affinity towards the Adenosine A1 receptor in cerebral cortices of Sprague-Dawley male rats using [3H]CHA as radioligand.
Experiment [9] concerns the target T2, Adenosine receptor A1. The experiment can be described thus: Binding affinity for Adenosine A1 receptor in cerebral cortices of Sprague-Dawley male rats using [3H]-CHA.

For orientation: IC50 means the concentration at which inhibition is half-maximal. In experiment [1], `CCc1nnc2c(N(C)C)nc3ccccc3n12` returned a half-maximal inhibitory concentration (IC50) of 12 µM. Further, the minimal effective dose in the experiment filed under Rattus norvegicus [2] was at most 3.2 mg/kg.

`Fc1ccc2nc(NC3CCCCC3)c3nnc(C(F)(F)F)n3c2c1`: in the experiment filed under Rattus norvegicus [2], the minimal effective dose is above 32 mg/kg. The IC50 against Adenosine A2 receptor [3] is 60 µM; at Phosphodiesterase 1 it was above 10 µM; on Adenosine receptor A1 [4] it was 0.032 µM; in the experiment listed under Rattus norvegicus [5] it was 6 µM.

For orientation: Ki means the equilibrium dissociation constant of an inhibitor or competing ligand from its target. The low end stands for higher affinity, the high end for lower affinity. Consider `OC[C@H]1O[C@@H](n2cnc3c(Nc4ccccc4)ncnc32)[C@H](O)[C@@H]1O` [N6-PHENYLADENOSINE], for which the Ki at Adenosine receptor A1 [6] came to 0.003 µM; on Adenosine A2 receptor [7], 50 µM. At Adenosine receptor A1 [8], this compound displayed an IC50 of 0.0065 µM.

With `CCc1nnc2c(NC(C)C)nc3c(Cl)cccc3n12`, the minimal effective dose in the experiment listed under Rattus norvegicus [2] was at most 32 mg/kg. Further, the IC50 on Adenosine A2 receptor [3] is above 100 µM; against Phosphodiesterase 1, >> 10 uM; at Adenosine receptor A1 [4], 6.8 µM; in the experiment filed under Rattus norvegicus [5], above 10 µM.

As to `CCc1nnc2c(N)nc3cc(F)ccc3n12`, the minimal effective dose in the experiment listed under Rattus norvegicus [2] is 3.2 mg/kg. In addition, the IC50 was 0.17 µM against Adenosine A2 receptor [3], >> 10 uM at Phosphodiesterase 1, 0.58 µM on Adenosine receptor A1 [4] and 40 µM in the experiment filed under Rattus norvegicus [5].

Take `CCc1nnc2c(NC(C)C)nc3ccccc3n12`: the minimal effective dose in the experiment filed under Rattus norvegicus [2] came to 10 mg/kg. The IC50 was determined as 6.4 µM at Adenosine A2 receptor [3], 3 µM against Phosphodiesterase 1, 0.66 µM on Adenosine receptor A1 [4] and 0.3 µM in the experiment filed under Rattus norvegicus [5].

Take `CCNc1nc2ccccc2n2c(CC)nnc12`: the minimal effective dose in the experiment filed under Rattus norvegicus [2] was 3.2 mg/kg. Besides, the IC50 on Adenosine A2 receptor [3] is 9.5 µM; at Phosphodiesterase 1, 20 µM; on Adenosine receptor A1 [4], 1.8 µM; in the experiment filed under Rattus norvegicus [5], 2.5 µM.

For the compound `COc1ccc(C2CNC(=O)C2)cc1OC1CCCC1` (stereo not drawn) [ROLIPRAM], the minimal effective dose in the experiment listed under Rattus norvegicus [2] is above 32 mg/kg. Also, the IC50 against Adenosine A2 receptor [3] was above 100 µM; against Phosphodiesterase 1, above 100 µM; on Adenosine receptor A1 [4], above 100 µM; in the experiment listed under Rattus norvegicus [5] it was 0.25 µM.

In the case of `COc1ccc2c(c1)nc(N)c1nncn12`, in the experiment listed under Rattus norvegicus [2], the minimal effective dose was 3.2 mg/kg. Also, the half-maximal inhibitory concentration (IC50) is 0.1 µM against Adenosine A2 receptor [3], >> 10 uM at Phosphodiesterase 1, 1.4 µM on Adenosine receptor A1 [4] and above 10 µM in the experiment listed under Rattus norvegicus [5].

Consider `FC(F)(F)c1nnc2c(NC3CCCCC3)nc3ccc(Cl)cc3n12`, for which the minimal effective dose in the experiment listed under Rattus norvegicus [2] is above 32 mg/kg. Besides, the IC50 was above 100 µM at Adenosine A2 receptor [3], above 10 µM against Phosphodiesterase 1, 0.028 µM on Adenosine receptor A1 [4] and above 10 µM in the experiment listed under Rattus norvegicus [5].

As for `CC(C)Cn1c(=O)n(C)c(=O)c2nc[nH]c21` [ISOBUTYLMETHYLXANTHINE], in the experiment filed under Rattus norvegicus [2], the minimal effective dose is above 32 mg/kg. The IC50 at Adenosine A2 receptor [3] worked out at 13 µM; against Phosphodiesterase 1, 0.1 µM; at Adenosine receptor A1 [4], 7 µM; in the experiment filed under Rattus norvegicus [5] it was 3.5 µM.

With `CC(C)Nc1nc2cc(F)ccc2n2cnnc12`, the minimal effective dose in the experiment listed under Rattus norvegicus [2] was above 32 mg/kg. The IC50 against Adenosine A2 receptor [3] was 13 µM; against Phosphodiesterase 1, above 100 µM; on Adenosine receptor A1 [4], 4.5 µM; in the experiment listed under Rattus norvegicus [5] it was 6 µM.

In the case of `CC(C)Nc1nc2ccc(F)cc2n2c(C(F)(F)F)nnc12`, the minimal effective dose in the experiment filed under Rattus norvegicus [2] was at most 3.2 mg/kg. Further, the IC50 against Adenosine A2 receptor [3] is 3.9 µM; against Phosphodiesterase 1, 24 µM; at Adenosine receptor A1 [4] it was 0.057 µM; in the experiment filed under Rattus norvegicus [5], 0.37 µM.

Consider `Nc1nc2ccc(F)cc2n2cnnc12`, for which the minimal effective dose in the experiment filed under Rattus norvegicus [2] is at most 32 mg/kg. The IC50 is 1 µM against Adenosine A2 receptor [3], above 10 µM against Phosphodiesterase 1, 2.9 µM on Adenosine receptor A1 [4] and 4 µM in the experiment listed under Rattus norvegicus [5].

`Nc1nc2ccc(Cl)cc2n2c(-c3ccc(Cl)cc3)nnc12`: the results for the IC50 against Adenosine A2 receptor [3] and at Adenosine receptor A1 [9] were 0.033 µM and 0.51 µM, respectively.

Turning to `CC(C)Nc1nc2ccc(F)cc2n2cnnc12`, the minimal effective dose in the experiment filed under Rattus norvegicus [2] was at most 3.2 mg/kg. The IC50 against Adenosine A2 receptor [3] is 6.9 µM; on Phosphodiesterase 1, above 100 µM; at Adenosine receptor A1 [4], 0.68 µM; in the experiment listed under Rattus norvegicus [5] it was 4.5 µM.

In turn, `CC(C)Nc1ncnc2c1ncn2[C@@H]1O[C@H](CO)[C@@H](O)[C@H]1O` came in with an IC50 at Adenosine receptor A1 [8] of 3.7 µM.
